According to patent US20240269337A1, “METHOD AND SYSTEM FOR COATING FILTER MEDIA” (MOLECULAR PLASMA GROUP SA, priority 2021, published 2024):

How the values were obtained:
[1] = test system: MS2 virus; assay: Virucidal testing with MS2 droplets on coated filter media 2.2 (Example 3); type: cell-based; details: 2 hours incubation
Procedure: Filter media 2.2 were coated according to the process parameters of Table 9 using the same PlasmaLine® equipment. For each coating process, 2 samples were coated with the outer waved layer exposed to the plasma source, and 2 samples were coated with the outer backing layer surface exposed.
Two precursors were used: an aqueous solution comprising 40% by weight of citric acid, and a solution of 15% by weight of chlorocresol in ethanol.
The anti-viral properties were tested by application of a fixed number of water droplets containing the MS2 virus on the surface of the samples. The droplets were applied to the surface that was exposed to the plasma source during the atmospheric pressure plasma coating process. After an incubation of 2 hours, the samples were immerged in a recuperation solution to extract the virus from the samples. The recuperation solution was placed in a petri dish wherein the E. coli bacteria grew, and the number of viral zones (zones comprising death bacteria) are counted. A lower number of viral zones indicates a larger neutralisation of the virus by the plasma coating.
The Virucide result (log value) gives the log value of the number of living viruses found in the recuperation solution.

[2] = test system: Staphylococcus aureus (gram-positive); assay: Quantitative antibacterial activity test of treated materials (OECD / ISO 22197/20743), Gram +; type: cell-based, S. aureus ATCC6538P
[3] = test system: Escherichia coli (gram-negative); assay: Quantitative antibacterial activity test of treated materials (OECD / ISO 22197/20743), Gram −; type: cell-based
[4] = test system: Phi-6 bacteriophage; assay: Phi-6 virucidal test (modified ISO 10705-1:1995); type: cell-based; details: 20 wt% citric acid precursor, Outer wave sample, 2-hour contact
[5] = test system: MS2; assay: MS2 test after accelerated ageing (ASTM F1980-16), Example 4; type: cell-based
From the text: Same filter media 2.2 as in example 3 was used. The filter media was placed with the outer backing layer on a support platform and the outer wave layer exposed to the coating precursor-comprising plasma discharge (or the plasma source) during the atmospheric pressure plasma coating process.
Two different precursors were used: an aqueous solution comprising 50% by weight of citric acid (CAS 77-92-9), and an aqueous solution comprising 25% by weight n-alkyl(C12-16)-n,n-dimethyl-n-benzylammonium chloride (BTC50E; CAS 68424-85-1) (1:1 w/w dilution in water).
Filter media samples were coated with each coating by passing 3 or 6 times through the plasma discharge area. The virucidal performance was tested by the MS2 test as explained above. An accelerated ageing test was performed according to ASTM F1980-16. […] An ageing test of 3 days at 55° C. and 75% RH represents 1 month in real life conditions. The results of the virucidal performance after ageing gives an idea of the durability of the coating over time.

[6] = pH test (change in pH value before and after coating, penetration depth); type: physicochemical; details: Outer wave sample
Procedure: The penetration depth was measured by measuring the change in pH value before and after coating on samples of the outer wave layer 51. […] Presence of citric acid was also detected in the intermediate layer 52.

[7] = exposed side Backing layer, 5 passes
[8] = exposed side Backing layer, 10 passes
[9] = exposed side waved layer, 5 passes
[10] = exposed side waved layer, 10 passes
[11] = exposed side waved layer, 20 passes
[12] = 3 passes, 0 days oven (0 months real life)
[13] = 3 passes, 9 days oven (3 months real life)
[14] = 3 passes, 19 days oven (6 months real life)
[15] = 3 passes, 27 days oven (9 months real life)
[16] = 3 passes, 36 days oven (12 months real life)
[17] = 6 passes, 0 days oven (0 months real life)
[18] = 6 passes, 6 days oven 55° C. 75% RH (2 months real life)
[19] = 6 passes, 9 days oven (3 months real life)
[20] = 6 passes, 19 days oven (6 months real life)
[21] = 6 passes, 27 days oven (9 months real life)
[22] = 6 passes, 36 days oven (12 months real life)
[23] = exposed side Backing layer, 20 passes
[24] = 3 passes, 3 days oven 55° C. 75% RH (1 month real life)
[25] = 3 passes, 6 days oven 55° C. 75% RH (2 months real life)
[26] = 6 passes, 3 days oven 55° C. 75% RH (1 month real life)

Cc1cc(O)ccc1Cl [Chlorocresol, reference compound]
Virus neutralized (%) [1, 7]: 68.4%
Viruside results (log red) [1, 7]: 0.5 log red
Virus neutralized (%) [1, 8]: 98.0%
Viruside results (log red) [1, 8]: 1.7 log red
Virus neutralized (%) [1, 9]: 36.9%
Viruside results (log red) [1, 9]: 0.2 log red
Virus neutralized (%) [1, 10]: 74.9%
Viruside results (log red) [1, 10]: 0.6 log red
Virus neutralized (%) [1, 11]: 84.2%
Viruside results (log red) [1, 11]: 0.8 log red

C=C(C)C(=O)OCCN(C)C [DIMAEMA, 2-(Dimethylamino) ethyl methacrylate]
% Gram + bacteria reduced ([2]; PPNW substrate 25 g/m^2): >99.994%
Gram + log reduction ([2]; PPNW substrate 25 g/m^2): >4.2 log
% Gram + bacteria reduced ([2]; Tyvek substrate): >99.95%
Gram + log reduction ([2]; Tyvek substrate): >3.3 log
% Gram − bacteria reduced ([3]; PPNW substrate 25 g/m^2): >99.9996%
Gram − log reduction ([3]; PPNW substrate 25 g/m^2): >5.4 log
% Gram − bacteria reduced ([3]; Tyvek substrate): 20.6%
Gram − log reduction ([3]; Tyvek substrate): 0.1 log

CCCCCCCCCCCCCCCCCC[N+](C)(C)CCC[Si](OC)(OC)OC.[Cl-] [SiQAM, Dimethyloctadecyl[3-(trimethoxysilyl)propyl] ammonium chloride]
% Gram + bacteria reduced ([2]; PPNW substrate 25 g/m^2): >99.994%
Gram + log reduction ([2]; PPNW substrate 25 g/m^2): >4.2 log
% Gram + bacteria reduced ([2]; Tyvek substrate): >99.95%
Gram + log reduction ([2]; Tyvek substrate): >3.3 log
% Gram − bacteria reduced ([3]; PPNW substrate 25 g/m^2): >99.9996%
Gram − log reduction ([3]; PPNW substrate 25 g/m^2): >5.4 log
% Gram − bacteria reduced ([3]; Tyvek substrate): >98.7%
Gram − log reduction ([3]; Tyvek substrate): >1.9 log

Benzalkonium chloride [reference compound]
% Gram + bacteria reduced ([2]; PPNW substrate 25 g/m^2): >99.994%
Gram + log reduction ([2]; PPNW substrate 25 g/m^2): >4.2 log
% Gram + bacteria reduced ([2]; Tyvek substrate): >99.5%
Gram + log reduction ([2]; Tyvek substrate): >3.3 log
% Gram − bacteria reduced ([3]; PPNW substrate 25 g/m^2): 99.9996%
Gram − log reduction ([3]; PPNW substrate 25 g/m^2): 5.4 log
% Gram − bacteria reduced ([3]; Tyvek substrate): 98.7%
Gram − log reduction ([3]; Tyvek substrate): 1.9 log

Citric Acid
Avg. Phi-6 (log red) ([4]; 6 passes): >2.2 log red
Phi-6 neutralized (%) ([4]; 6 passes): >99.37%
Avg. Phi-6 (log red) ([4]; 10 passes): >2.2 log red
Phi-6 neutralized (%) ([4]; 10 passes): >99.37%
Avg. Phi-6 (log red) ([4]; 20 passes): >2.2 log red
Phi-6 neutralized (%) ([4]; 20 passes): >99.37%
% Gram + bacteria reduced ([2]; PPNW substrate 25 g/m^2): >99.995%
Gram + log reduction ([2]; PPNW substrate 25 g/m^2): >4.3 log
% Gram + bacteria reduced ([2]; Tyvek substrate): >99.98%
Gram + log reduction ([2]; Tyvek substrate): >3.8 log
Virus neutralized (%) [5, 12]: 99.86%
Viruside results (log red) [5, 12]: 2.86 log red
Virus neutralized (%) [5, 13]: 97.76%
Virus neutralized (%) [5, 14]: 97.38%
Virus neutralized (%) [5, 15]: 99.00%
Virus neutralized (%) [5, 16]: 97.91%
Virus neutralized (%) [5, 17]: 99.78%
Viruside results (log red) [5, 17]: 2.65 log red
Virus neutralized (%) [5, 18]: 98.09%
Viruside results (log red) [5, 18]: 1.72 log red
Virus neutralized (%) [5, 19]: 96.45%
Virus neutralized (%) [5, 20]: 95.91%
Virus neutralized (%) [5, 21]: 97.61%
Virus neutralized (%) [5, 22]: 93.97%
pH test ([6]; 6 passes): 1.66
pH test ([6]; 10 passes): 1.72
pH test ([6]; 20 passes): 1.78
% Gram − bacteria reduced ([3]; PPNW substrate 25 g/m^2): >99.999%
Gram − log reduction ([3]; PPNW substrate 25 g/m^2): >5.0 log
% Gram − bacteria reduced ([3]; Tyvek substrate): 97.5%
Gram − log reduction ([3]; Tyvek substrate): 1.6 log
Virus neutralized (%) [1, 7]: 93.7%
Viruside results (log red) [1, 7]: 1.2 log red
Virus neutralized (%) [1, 8]: 96.0%
Viruside results (log red) [1, 8]: 1.4 log red
Virus neutralized (%) [1, 23]: 99.8%
Viruside results (log red) [1, 23]: 2.7 log red
Virus neutralized (%) [1, 9]: 80.0%
Viruside results (log red) [1, 9]: 0.7 log red
Virus neutralized (%) [1, 10]: 93.7%
Viruside results (log red) [1, 10]: 1.2 log red
Virus neutralized (%) [1, 11]: 98.7%
Viruside results (log red) [1, 11]: 1.9 log red

PVP-12 Poly(vinylpyrrolidone)- Iodine complex [PVP-I2, reference compound]
% Gram + bacteria reduced ([2]; PPNW substrate 25 g/m^2): >99.994%
Gram + log reduction ([2]; PPNW substrate 25 g/m^2): >4.2 log
% Gram − bacteria reduced ([3]; PPNW substrate 25 g/m^2): >99.9996%
Gram − log reduction ([3]; PPNW substrate 25 g/m^2): >5.4 log

n-alkyl(C12-16)-n,n-dimethyl-n-benzylammonium chloride [BTC50E]
Virus neutralized (%) [5, 12]: 99.57%
Viruside results (log red) [5, 12]: 2.37 log red
Virus neutralized (%) [5, 24]: 99.96%
Viruside results (log red) [5, 24]: 3.38 log red
Virus neutralized (%) [5, 25]: 99.74%
Viruside results (log red) [5, 25]: 2.59 log red
Virus neutralized (%) [5, 13]: 99.35%
Virus neutralized (%) [5, 14]: 99.86%
Virus neutralized (%) [5, 15]: 99.89%
Virus neutralized (%) [5, 16]: 99.98%
Virus neutralized (%) [5, 17]: 99.83%
Viruside results (log red) [5, 17]: 2.78 log red
Virus neutralized (%) [5, 26]: 99.82%
Viruside results (log red) [5, 26]: 2.75 log red
Virus neutralized (%) [5, 18]: 99.83%
Viruside results (log red) [5, 18]: 2.78 log red
Virus neutralized (%) [5, 19]: 98.88%
Virus neutralized (%) [5, 20]: 99.83%
Virus neutralized (%) [5, 21]: 99.70%
Virus neutralized (%) [5, 22]: 98.59%
